In series [1] the test system is T1, HDAC.
T1 construct: other: HDAC Fluor-Lys substrate; other: at concentrations of 1 μM
The experiment in a line: in vitro HDAC inhibitory activity, HDAC Fluor-Lys as substrate (BIOMOL). It counts as biochemical. To be noted: for IC50: read-out: IC50, concentration required to achieve 50% inhibition of HDAC activity. How it is done:
The in vitro HDAC inhibitory activity of the synthesized compounds was determined by using HDAC Fluor-Lys as the substrate (BIOMOL). […] SAHA was used as a positive control.

For series [2], the system named is human normal fibroblasts (NHP-5). The experiment in a line: growth inhibition of normal cells NHP-5. It counts as cell-based. Conditions: Fibroblast. On the procedure: (§1) One of characteristics of the HDAC inhibitors relates to their ability to inhibit the growth of transformed cells. The compounds capable of modifying histones in the cell were tested for their biological effects.

Series [3] concerns human normal primary skin fibroblasts (Hs-68). Description: growth inhibition of normal cells Hs-68. The class given is cell-based. Conditions: Hs68. How it is done: as §1
Series [4] deals with prostate cancer (PC-3), breast cancer (MCF-7), cervical cancer (HeLa), squamous carcinoma (SQ-20B). Description: antiproliferative activity in cancer cell lines. To be noted: PC-3, MCF-7, HeLa. The class given is cell-based. How it is done:
as §1

The test system of series [5] is mouse model of Huntington's disease. To be noted: cited from earlier work.
Series [6] concerns Plasmodium falciparum. Conditions: human malaria parasite Plasmodium falciparum; cited from earlier work.
Series [7] addresses T2, HDAC1 (Homo sapiens, UniProt Q13547).
T2 construct: endogenous in cells; host or cells: HeLa nuclear extract, immunoprecipitate
Description: class I HDAC isoform activity, immunoprecipitate from HeLa nuclear extracts. It counts as biochemical. Conditions: 0.5 μM of the test compound. The source says:
(§2) FIG. 10 depicts the effect of HDAC inhibitors, including selected compounds of the invention, on Class I HDAC isoform activities. Note that (a) denotes that HeLa nuclear extracts were used for immunoprecipitation (IP) with antibodies against HDAC 1-3; and (b) denotes that recombinant protein was used for HDAC 8. Note: TSA is trichostatin A.
(§3) To test whether the modified CAP region of the HDACIs is able to target specific HDAC isoform enzyme activity, the compounds were examined for class I HDAC isoform inhibitory activities using recombinant HDAC8 and immunoprecipitates of the other HDAC isoforms (HDAC 1, 2, 3) using nuclear extracts from HeLa cells. […] The data shown in FIG. 10 represent the HDAC inhibitory activity remaining after addition of 0.5 μM of the test compounds.

The target in series [8] is T3, HDAC2 (Homo sapiens, UniProt Q92769).
T3 construct: endogenous in cells; host or cells: HeLa nuclear extract, immunoprecipitate
T3 sequence (Q92769 whole entry): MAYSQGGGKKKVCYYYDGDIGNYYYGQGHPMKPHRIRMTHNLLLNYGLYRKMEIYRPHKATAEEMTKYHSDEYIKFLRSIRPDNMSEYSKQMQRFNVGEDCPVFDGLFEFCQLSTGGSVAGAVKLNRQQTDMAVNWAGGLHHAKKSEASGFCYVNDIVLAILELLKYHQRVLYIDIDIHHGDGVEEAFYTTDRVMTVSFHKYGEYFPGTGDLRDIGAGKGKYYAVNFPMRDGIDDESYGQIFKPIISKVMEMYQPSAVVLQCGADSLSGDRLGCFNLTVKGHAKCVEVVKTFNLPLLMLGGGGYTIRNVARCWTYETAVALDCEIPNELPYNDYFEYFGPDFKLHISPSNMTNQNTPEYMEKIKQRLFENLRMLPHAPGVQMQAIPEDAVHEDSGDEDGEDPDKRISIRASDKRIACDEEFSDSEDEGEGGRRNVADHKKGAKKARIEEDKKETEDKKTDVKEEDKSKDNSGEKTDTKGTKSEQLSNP
Described as above. It counts as biochemical. To be noted: 0.5 μM of the test compound.
From the text: as §2, §3

Series [9] has as its target T4, HDAC3 (Homo sapiens, UniProt O15379).
T4 construct: endogenous in cells; host or cells: HeLa nuclear extract, immunoprecipitate
The description is as above. The class given is biochemical. Conditions: after addition of 0.5 μM of the test compound.
From the text: as §2, §3

In series [10] the target is T5, HDAC8 (Homo sapiens, UniProt Q9BY41).
T5 sequence (Q9BY41 1-377): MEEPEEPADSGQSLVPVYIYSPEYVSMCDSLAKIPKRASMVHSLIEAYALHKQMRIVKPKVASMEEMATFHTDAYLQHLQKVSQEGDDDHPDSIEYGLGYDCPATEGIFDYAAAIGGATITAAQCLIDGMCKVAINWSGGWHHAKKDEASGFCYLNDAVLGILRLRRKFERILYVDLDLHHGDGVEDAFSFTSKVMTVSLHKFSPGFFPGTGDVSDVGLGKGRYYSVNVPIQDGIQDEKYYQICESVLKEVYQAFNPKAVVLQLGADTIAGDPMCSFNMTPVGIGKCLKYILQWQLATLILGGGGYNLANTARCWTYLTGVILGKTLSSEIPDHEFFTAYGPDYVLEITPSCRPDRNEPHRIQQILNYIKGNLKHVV
The experiment in a line: class I HDAC isoform activity, recombinant protein. The class given is biochemical. Conditions: after addition of 0.5 μM of the test compound.
From the text: as §2, §3

Series [11] deals with HDAC 1, 2, 3 and HDAC8. Description: class I HDAC isoform panel, comparison across isoforms. To be noted: 0.5 μM of the test compound; HDAC 1, 2, 3, 8. The class given is biochemical. The source says: FIG. 10 depicts the effect of HDAC inhibitors, including selected compounds of the invention, on Class I HDAC isoform activities. Note that (a) denotes that HeLa nuclear extracts were used for immunoprecipitation (IP) with antibodies against HDAC 1-3; and (b) denotes that recombinant protein was used for HDAC 8.

Series [12] concerns HDAC. To be noted: read-out: reported IC50; literature value; cited from earlier work.

Entries after “also recorded” stand apart in the source; their conditions may differ. Where two headings read alike, the source gives them in different places.

T4 sequence (O15379 whole entry): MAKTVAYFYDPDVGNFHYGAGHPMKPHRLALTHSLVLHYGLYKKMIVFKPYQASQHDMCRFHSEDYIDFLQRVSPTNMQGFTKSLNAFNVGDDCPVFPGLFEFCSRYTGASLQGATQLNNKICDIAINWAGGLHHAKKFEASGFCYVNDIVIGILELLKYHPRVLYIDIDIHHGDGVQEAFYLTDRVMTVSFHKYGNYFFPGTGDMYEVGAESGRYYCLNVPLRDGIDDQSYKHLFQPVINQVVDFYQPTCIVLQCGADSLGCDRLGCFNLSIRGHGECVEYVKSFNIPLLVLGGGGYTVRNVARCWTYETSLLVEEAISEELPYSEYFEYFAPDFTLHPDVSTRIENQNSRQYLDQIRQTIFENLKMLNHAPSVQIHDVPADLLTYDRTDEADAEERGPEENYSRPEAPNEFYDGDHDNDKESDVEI
T4 sequence (Q9Y618 whole entry partner): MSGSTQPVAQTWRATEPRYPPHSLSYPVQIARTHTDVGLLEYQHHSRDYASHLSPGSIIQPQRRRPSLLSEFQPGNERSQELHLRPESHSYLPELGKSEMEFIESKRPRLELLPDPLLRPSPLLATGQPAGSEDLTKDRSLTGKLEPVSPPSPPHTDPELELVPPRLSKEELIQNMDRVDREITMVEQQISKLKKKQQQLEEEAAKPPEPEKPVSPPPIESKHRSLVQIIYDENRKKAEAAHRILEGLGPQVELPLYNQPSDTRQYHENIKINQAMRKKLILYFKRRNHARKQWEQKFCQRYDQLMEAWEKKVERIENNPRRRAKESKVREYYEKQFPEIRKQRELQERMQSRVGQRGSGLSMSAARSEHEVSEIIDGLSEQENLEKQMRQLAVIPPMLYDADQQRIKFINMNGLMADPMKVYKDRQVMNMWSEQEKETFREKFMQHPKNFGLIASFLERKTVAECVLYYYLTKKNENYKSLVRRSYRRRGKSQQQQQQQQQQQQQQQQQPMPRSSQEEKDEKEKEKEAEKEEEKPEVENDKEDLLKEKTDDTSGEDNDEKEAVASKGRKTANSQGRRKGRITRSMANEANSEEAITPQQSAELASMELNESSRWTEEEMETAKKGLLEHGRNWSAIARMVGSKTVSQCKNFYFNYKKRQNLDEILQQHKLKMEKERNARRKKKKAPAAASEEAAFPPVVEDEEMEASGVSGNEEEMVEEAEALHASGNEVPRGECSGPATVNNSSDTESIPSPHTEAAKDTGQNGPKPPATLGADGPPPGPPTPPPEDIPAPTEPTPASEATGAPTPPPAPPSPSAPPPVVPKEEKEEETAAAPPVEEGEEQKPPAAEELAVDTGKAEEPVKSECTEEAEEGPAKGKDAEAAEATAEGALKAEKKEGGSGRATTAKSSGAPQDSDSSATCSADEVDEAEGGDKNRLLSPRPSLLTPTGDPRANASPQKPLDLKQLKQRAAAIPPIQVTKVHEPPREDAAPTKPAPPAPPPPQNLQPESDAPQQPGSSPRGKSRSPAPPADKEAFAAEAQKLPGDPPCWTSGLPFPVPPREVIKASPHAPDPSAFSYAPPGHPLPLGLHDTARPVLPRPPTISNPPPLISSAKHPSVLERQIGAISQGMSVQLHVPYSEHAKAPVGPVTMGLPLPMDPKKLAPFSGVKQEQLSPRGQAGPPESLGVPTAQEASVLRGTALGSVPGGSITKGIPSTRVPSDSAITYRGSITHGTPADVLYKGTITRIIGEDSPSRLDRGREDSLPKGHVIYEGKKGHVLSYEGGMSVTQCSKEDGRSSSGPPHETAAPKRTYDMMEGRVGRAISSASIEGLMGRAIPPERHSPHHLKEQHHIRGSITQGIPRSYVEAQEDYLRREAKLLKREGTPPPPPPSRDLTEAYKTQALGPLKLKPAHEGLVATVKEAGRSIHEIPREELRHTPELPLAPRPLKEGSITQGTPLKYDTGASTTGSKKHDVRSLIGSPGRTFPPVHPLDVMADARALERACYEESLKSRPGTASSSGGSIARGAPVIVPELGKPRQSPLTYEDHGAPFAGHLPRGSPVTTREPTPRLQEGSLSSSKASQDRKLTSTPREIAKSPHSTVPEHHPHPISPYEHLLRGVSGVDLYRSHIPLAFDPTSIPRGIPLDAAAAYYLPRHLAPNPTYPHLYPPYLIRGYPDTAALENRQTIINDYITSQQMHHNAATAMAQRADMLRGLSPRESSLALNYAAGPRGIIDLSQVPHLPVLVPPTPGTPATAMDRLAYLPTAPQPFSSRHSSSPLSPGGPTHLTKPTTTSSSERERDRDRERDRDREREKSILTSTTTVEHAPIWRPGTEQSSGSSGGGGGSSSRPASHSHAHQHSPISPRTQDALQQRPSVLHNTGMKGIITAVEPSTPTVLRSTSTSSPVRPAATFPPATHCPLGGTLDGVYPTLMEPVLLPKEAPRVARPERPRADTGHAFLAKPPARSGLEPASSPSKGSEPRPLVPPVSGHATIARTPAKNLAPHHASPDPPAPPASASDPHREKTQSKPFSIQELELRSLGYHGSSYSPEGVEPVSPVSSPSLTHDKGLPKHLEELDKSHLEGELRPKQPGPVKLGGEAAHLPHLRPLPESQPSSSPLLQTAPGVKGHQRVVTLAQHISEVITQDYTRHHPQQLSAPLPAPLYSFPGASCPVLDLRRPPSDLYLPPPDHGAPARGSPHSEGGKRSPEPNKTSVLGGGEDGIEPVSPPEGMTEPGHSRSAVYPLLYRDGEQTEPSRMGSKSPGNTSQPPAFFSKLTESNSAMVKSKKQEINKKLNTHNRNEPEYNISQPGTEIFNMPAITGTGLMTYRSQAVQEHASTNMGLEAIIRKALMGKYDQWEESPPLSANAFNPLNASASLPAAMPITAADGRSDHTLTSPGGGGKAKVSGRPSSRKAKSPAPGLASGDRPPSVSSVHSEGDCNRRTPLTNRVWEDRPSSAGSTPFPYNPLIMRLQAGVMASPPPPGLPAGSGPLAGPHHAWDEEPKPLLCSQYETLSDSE
T2 sequence (Q13547 whole entry): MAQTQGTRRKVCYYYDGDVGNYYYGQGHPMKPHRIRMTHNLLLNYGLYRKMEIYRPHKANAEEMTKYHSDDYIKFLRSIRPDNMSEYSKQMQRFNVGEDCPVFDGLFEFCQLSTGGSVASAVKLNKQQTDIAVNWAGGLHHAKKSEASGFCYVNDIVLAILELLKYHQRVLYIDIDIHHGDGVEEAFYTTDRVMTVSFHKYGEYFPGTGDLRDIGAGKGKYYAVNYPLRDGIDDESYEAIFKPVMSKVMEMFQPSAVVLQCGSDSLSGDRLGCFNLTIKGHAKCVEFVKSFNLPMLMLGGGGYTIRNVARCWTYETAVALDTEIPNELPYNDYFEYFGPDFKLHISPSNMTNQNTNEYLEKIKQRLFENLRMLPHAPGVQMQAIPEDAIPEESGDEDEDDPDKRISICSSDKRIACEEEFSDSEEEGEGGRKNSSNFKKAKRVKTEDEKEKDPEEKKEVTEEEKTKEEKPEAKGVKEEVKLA

Regarding `NCC(=O)Nc1ccccc1-c1ccc(NC(=O)CCCCCCC(=O)NO)cc1` [7a, octanedioic acid [2′-(2-amino-acetylamino)-biphenyl-4-yl]-amide hydroxyamide], the IC50 was 200 nM in series [1] (HDAC Fluor-Lys substrate), > 500000 nM in series [2] and > 500000 nM in series [3].

Regarding `NC(Cc1ccccc1)C(=O)Nc1ccccc1-c1ccc(NC(=O)CCCCCCC(=O)NO)cc1` (stereo not drawn) [7b, octanedioic acid [2′-(2-amino-3-phenyl-propionylamino)-biphenyl-4-yl]-amide hydroxyamide], the “HDAC inhibitory activity (in words)” value in series [1] is on record as “approximately equipotent in their activity to SAHA”. Further, the “antiproliferative / growth inhibitory activity (in words)” value in series [4] is “good growth inhibitory activity”. In addition, the IC50 in series [2] was 80000 nM; in series [3], > 300000 nM.

`O=C(CCCCCCC(=O)Nc1ccc(-c2ccccc2NC(=O)C2CCCN2)cc1)NO` (stereo not drawn) [7c, octanedioic acid hydroxyamide {2′-[(pyrrolidine-2-carbonyl)-amino]-biphenyl-4-yl}-amide]: the “HDAC inhibitory activity (in words)” value in [1] (HDAC Fluor-Lys substrate) is on record as “approximately equipotent in their activity to SAHA”.

`NC(Cc1c[nH]c2ccccc12)C(=O)Nc1ccccc1-c1ccc(NC(=O)CCCCCCC(=O)NO)cc1` (stereo not drawn) [7d, octanedioic acid {2′-[2-amino-3-(1H-indol-3-yl)-propionylamino]-biphenyl-4-yl}-amide hydroxyamide]: the IC50 in [1] worked out at 30 nM; in [2], 100000 nM.

`NC(Cc1ccc(O)cc1)C(=O)Nc1ccccc1-c1ccc(NC(=O)CCCCCCC(=O)NO)cc1` (stereo not drawn) [7e, octanedioic acid {2′-[2-amino-3-(4-hydroxy-phenyl)-propionylamino]-biphenyl-4-yl}-amide hydroxyamide]: the IC50 in series [1] (HDAC Fluor-Lys substrate) is 50 nM.

Regarding `NCC(=O)Nc1ccccc1-c1ccc(NC(=O)CCCCCNC(=O)CS)cc1` [10a, 6-(2-mercapto-acetylamino)-hexanoic acid [2′-(2-amino-acetylamino)-biphenyl-4-yl]-amide], the IC50 in series [1] is 7000 nM.

Take `NC(Cc1ccccc1)C(=O)Nc1ccccc1-c1ccc(NC(=O)CCCCCNC(=O)CS)cc1` (stereo not drawn) [10b, 6-(2-Mercapto-acetylamino)-hexanoic acid [2′-(2-amino-3-phenyl-propionylamino)-biphenyl-4-yl]-amide]: the IC50 in series [1] was 3000 nM.

As for `NC(Cc1c[nH]c2ccccc12)C(=O)Nc1ccccc1-c1ccc(NC(=O)CCCCCNC(=O)CS)cc1` (stereo not drawn) [10d, 6-(2-mercapto-acetylamino)-hexanoic acid {2′-[2-amino-3-(1H-indol-3-yl)-propionylamino]-biphenyl-4-yl}-amide], the “HDAC inhibitory activity at a fixed concentration (in words)” value in [1] was “inactive”.

Turning to `NC(Cc1ccc(O)cc1)C(=O)Nc1ccccc1-c1ccc(NC(=O)CCCCCNC(=O)CS)cc1` (stereo not drawn) [10e, 6-(2-mercapto-acetylamino)-hexanoic acid {2′-[2-amino-3-(4-hydroxy-phenyl)-propionylamino]-biphenyl-4-yl}-amide], in series [1] (at concentrations of 1 μM), the “HDAC inhibitory activity at a fixed concentration (in words)” value was “inactive”.

In the case of `O=C(CCCCCCC(=O)Nc1ccccc1)NO` [SAHA, suberoylanilide hydroxamic acid], in series [5] (mouse model of Huntington's disease), the motor impairment result was “improve dramatically the motor impairment”. For the same molecule, the brain penetration entry in series [5] (mouse, in vivo) is recorded as “penetrate into the brain”.

With `COc1ccc(CCN(C)CCCC(C#N)(c2ccc(OC)c(OC)c2)C(C)C)cc1OC` (stereo not drawn) [Verapamil], the “reversal of chloroquine resistance” value in series [6] was “reverse chloroquine resistance”.

As to `Nc1ccccc1-c1csc(NC(=O)CCCCCCC(=O)NO)n1` [compound 16, octanedioic acid hydroxyamide [4-(2-amino-phenyl)-thiazol-2-yl]-amide], in [1] (HDAC Fluor-Lys substrate), the “HDAC inhibitory activity (in words)” value was “poorly active”.

As for `O=C(CCCCCCC(=O)Nc1nc(-c2ccccc2[N+](=O)[O-])cs1)NO` [compound 17, octanedioic acid hydroxyamide [4-(2-nitro-phenyl)-thiazol-2-yl]-amide], the IC50 in [1] (HDAC Fluor-Lys substrate) amounted to 50 nM.

As to `O=C(CCCCCCC(=O)Nc1nc(-c2cccc([N+](=O)[O-])c2)cs1)NO` [compound 19, octanedioic acid hydroxyamide [4-(3-Nitro-phenyl)-thiazol-2-yl]-amide], in series [4], the “antiproliferative / growth inhibitory activity (in words)” value is reported as “submicromolar activity”. Further, the “inhibition of HDAC1 activity (in words)” value in series [7] is reported as “strong tendency to inhibit”. Further, the “inhibition of HDAC2 activity (in words)” value in [8] is reported as “strong tendency to inhibit”. Further, the remaining activity at 0.5 µM in [9] and in series [10] was > 30% each time.

Regarding `CCOC(=O)Nc1cccc(-c2csc(NC(=O)CCCCCCC(=O)NO)n2)c1` [compound 22, {3-[2-(7-hydroxycarbamoyl-heptanoylamino)-thiazol-4-yl]-phenyl}-carbamic acid ethyl ester], the IC50 in [1] (HDAC Fluor-Lys substrate) was determined as 5 nM. Also, the “potency relative to trichostatin A” value in [1] (IC50 compared with reported IC50 of trichostatin A) is reported as “approximately two-fold”. The “antiproliferative / growth inhibitory activity (in words)” value in series [4] is reported as “submicromolar activity; also recorded: impressive antiproliferative activity”.

With `Nc1cccc(-c2csc(NC(=O)CCCCCCC(=O)NO)n2)c1` [compound 23, octanedioic acid hydroxyamide [4-(3-amino-phenyl)-thiazol-2-yl]-amide], the IC50 in [1] (HDAC Fluor-Lys substrate) was 8 nM. Moreover, the “antiproliferative / growth inhibitory activity (in words)” value in series [4] was “submicromolar activity”. The “inhibition of HDAC1 activity (in words)” value in series [7] is listed as “strong tendency to inhibit”. In addition, the “inhibition of HDAC2 activity (in words)” value in series [8] was “strong tendency to inhibit”. Besides, the remaining activity at 0.5 µM in [9] and in series [10] was > 30% throughout.

Take trichostatin A: in [11], the “class I HDAC isoform inhibitory activity and selectivity (in words)” value was “more effective for inhibiting HDACs 1 and 2”. Besides, the IC50 in series [12] is 12 nM.
